The target of the experiment is Sushi domains (SD1/2) protein. The experiment is described as follows: Fluorescence polarization (FP) competition assay with AJAP-1probe, calculated Ki. In kind it is binding. Summed up: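 Competition against 25 nM TAMRA-labelled peptide probe binding SD1/2, in PBS pH 7.4 with 1% BSA at rt, read at 530/580 nm. IC50 from sigmoidal dose-response fits, at least triplicate; Ki calculated from IC50 using probe Kd from saturation binding.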

Where [1] appears, read: Table 16, ncAAs incorporated peptides, read-out: Ki (nM) mean ± SEM.
The mark [2] stands for this setting: Table 9, Ala-, D-amino acids and N-methylation scans of PIANPWT, read-out: Ki (nM) mean ± SEM.
Setting [3] is: Table 10, deep mutational scanning validation variants of APPWT, read-out: Ki (nM) mean ± SEM.
Where [4] appears, read: Table 11, deep mutational scanning validation variants of AJAP-1WT, read-out: Ki (nM) mean ± SEM.

Results on 18 molecules are retold here after US20260193293A1, “PEPTIDES CAPABLE OF INHIBITING PROTEIN-PROTEIN INTERACTIONS AT GABAB1A SUBUNIT AND USES THEREOF” (UNIVERSITY OF COPENHAGEN, priority 2022, published 2026).

Where two headings read alike, the source gives them in different places. Non-standard residues stand in square brackets, D forms with d. Residues, ends and D or L forms follow the SMILES beside them. Phe(4-tBu) = CC(C)(C)c1ccc(C[C@H](N)C(=O)O)cc1; Phe(4-NH2) = Nc1ccc(C[C@H](N)C(=O)O)cc1; NMeS = CN[C@@H](CO)C(=O)O

Consider “EDDS(Buphe)VWWGGADTD (Ac-EDDS[Phe(4-tBu)]VWWGGADTD-NH2)”, for which, under setting [1], the Ki is 269 ± 3 nM.
On to `CC[C@H](C)[C@H](NC(=O)[C@H](Cc1ccccc1)NC(=O)[C@H](CCC(=O)O)NC(=O)[C@@H](NC(=O)[C@H](CCC(=O)O)NC(=O)[C@@H](NC(C)=O)[C@@H](C)O)[C@@H](C)O)C(=O)N[C@@H](C)C(=O)N[C@@H](Cc1c[nH]c2ccccc12)C(=O)NCC(=O)N1CCC[C@H]1C(=O)N[C@H](C(=O)NCC(N)=O)[C@@H](C)O` (Ac-TETEFIAWGPTG-NH2), for which the Ki (Table 5, elongation and truncation scan of AJAP-1 binding epitope, read-out: Ki (nM) mean ± SEM) is 248 ± 7 nM.
On to `CC[C@H](C)[C@H](NC(=O)[C@H](Cc1ccc(O)cc1)NC(=O)[C@H](CC(=O)O)NC(=O)[C@H](CC(=O)O)NC(=O)[C@H](CCC(=O)O)NC(C)=O)C(=O)N[C@@H](CC(=O)O)C(=O)N[C@@H](Cc1c[nH]c2ccccc12)C(=O)N[C@@H](Cc1ccc(O)cc1)C(=O)N[C@@H](CC(=O)O)C(=O)N[C@@H](CO)C(=O)N[C@@H](CC(=O)O)C(=O)N[C@@H](CC(=O)O)C(=O)N[C@@H](CC(=O)O)C(N)=O` [Peptide 18] (Ac-EDDYIDWYDSDDD-NH2), for which the Ki is, setting by setting: (Table 1, affinity maturation, mean ± SEM, n ≥ 3, read-out: Ki) 4.6 ± 0.3 nM; (Table 13, peptides for affinity maturation, read-out: Ki (nM) mean ± SEM) 4.6 ± 0.3 nM.
In the case of `CC[C@H](C)[C@H](NC(=O)[C@H](C)NC(=O)[C@H](Cc1c[nH]c2ccccc12)NC(=O)[C@@H]1CCCN1C(C)=O)C(=O)N[C@H](C(=O)N[C@@H](Cc1c[nH]c2ccccc12)C(=O)NCC(=O)N[C@@H](C)C(=O)N[C@H](C(=O)N[C@H](C(=O)N[C@@H](CO)C(=O)N[C@@H](CCCNC(=N)N)C(=O)N[C@@H](CCC(=O)O)C(=O)N[C@@H](CC(=O)O)C(N)=O)C(C)C)[C@@H](C)O)C(C)C` [PWAIVWGATVSRED] (Ac-PWAIVWGATVSRED-NH2), the Ki under setting [2] is 1500 ± 34 nM.
Consider “EDDS(Aphe)VWWGGADTD (Ac-EDDS[Phe(4-NH2)]VWWGGADTD-NH2)”, for which the Ki under setting [1] is 184 ± 3 nM.
Consider `CC(=O)N[C@@H](CCC(=O)O)C(=O)N[C@@H](CC(=O)O)C(=O)N[C@@H](CC(=O)O)C(=O)N[C@@H](CO)C(=O)N[C@@H](Cc1ccccc1)C(=O)N[C@H](C(=O)N[C@@H](Cc1c[nH]c2ccccc12)C(=O)N[C@@H](Cc1c[nH]c2ccccc12)C(=O)NCC(=O)NCC(=O)N[C@@H](C)C(=O)N[C@@H](CC(=O)O)C(=O)N[C@H](C(=O)N[C@@H](CC(=O)O)C(N)=O)[C@@H](C)O)C(C)C` (Ac-EDDSFVWWGGADTD-NH2), for which the Ki under setting [3] is 142 ± 6 nM.
With `CC[C@H](C)[C@H](NC(=O)[C@H](C)NC(=O)[C@H](Cc1c[nH]c2ccccc12)NC(=O)[C@@H]1CCCN1C(C)=O)C(=O)N[C@H](C(=O)N[C@@H](Cc1c[nH]c2ccccc12)C(=O)NCC(=O)N1CCC[C@H]1C(=O)N[C@H](C(=O)N[C@H](C(=O)N[C@@H](CO)C(=O)N[C@@H](CCCNC(=N)N)C(=O)N[C@@H](CCC(=O)O)C(=O)N[C@@H](CC(=O)O)C(=O)NCC(=O)NCC(=O)N[C@@H](CC(=O)O)C(=O)N1CCC[C@H]1C(N)=O)C(C)C)[C@@H](C)O)C(C)C` (Ac-PWAIVWGPTVSREDGGDP-NH2), the Ki (Table 6, elongation and truncation scan of PIANP binding epitope, read-out: Ki (nM) mean ± SEM) is 597 ± 7 nM.
Consider `CC(=O)N[C@@H](CCC(=O)O)C(=O)N[C@@H](CC(=O)O)C(=O)N[C@@H](CC(=O)O)C(=O)N(C)[C@@H](CO)C(=O)N[C@@H](CC(=O)O)C(=O)N[C@H](C(=O)N[C@@H](Cc1c[nH]c2ccccc12)C(=O)N[C@@H](Cc1c[nH]c2ccccc12)C(=O)NCC(=O)NCC(=O)N[C@@H](C)C(=O)N[C@@H](CC(=O)O)C(=O)N[C@H](C(=O)N[C@@H](CC(=O)O)C(N)=O)[C@@H](C)O)C(C)C` (Ac-EDD[NMeS]DVWWGGADTD-NH2), for which, where the note is “Table 7, Ala-, D-amino acids and N-methylation scans of APPWT, read-out: Ki (nM) mean ± SEM”, the Ki was 1670 ± 32 nM.
For `CC[C@H](C)[C@H](NC(=O)[C@H](Cc1c[nH]c2ccccc12)NC(=O)[C@H](CC(=O)O)NC(=O)[C@H](CC(=O)O)NC(=O)[C@H](CC(=O)O)NC(=O)[C@H](CCC(=O)O)NC(=O)[C@H](CCCNC(=N)N)NC(=O)[C@H](CCCNC(=N)N)NC(=O)[C@H](CCCNC(=N)N)NC(=O)[C@H](CCCNC(=N)N)NC(=O)[C@H](CCCNC(=N)N)NC(=O)[C@H](CCCNC(=N)N)NC(=O)[C@H](CCCNC(=N)N)NC(C)=O)C(=O)N[C@@H](CC(=O)O)C(=O)N[C@@H](Cc1c[nH]c2ccccc12)C(=O)N[C@@H](Cc1ccc(O)cc1)C(=O)N[C@@H](CC(=O)O)C(=O)N[C@@H](CO)C(=O)N[C@@H](CC(=O)O)C(=O)N[C@@H](CC(=O)O)C(=O)N[C@@H](CC(=O)O)C(N)=O` (Ac-RRRRRRREDDDWIDWYDSDDD-NH2), the Ki (Table 14, CPPs tagged peptides, read-out: Ki (nM) mean ± SEM) was 89.1 ± 3 nM.
For `CC[C@H](C)[C@H](NC(=O)[C@H](Cc1ccccc1)NC(=O)[C@H](CCC(=O)O)NC(=O)[C@@H](NC(=O)[C@H](CCC(=O)O)NC(C)=O)[C@@H](C)O)C(=O)N[C@@H](C)C(=O)N[C@@H](Cc1c[nH]c2ccccc12)C(=O)NCC(=O)N1CCC[C@H]1C(=O)N[C@@H](C)C(=O)NCC(=O)N[C@@H](CC(=O)O)C(=O)N[C@@H](CCC(=O)O)C(=O)N[C@@H](CC(=O)O)C(N)=O` [ETEFIAWGPAGDED] (Ac-ETEFIAWGPAGDED-NH2), the Ki (Table 8, Ala-, D-amino acids and N-methylation scans of AJAP-1WT, read-out: Ki (nM) mean ± SEM) was 89 ± 2 nM.
As for `CC[C@H](C)[C@H](NC(=O)[C@H](Cc1ccccc1)NC(=O)[C@H](CCC(=O)O)NC(=O)[C@@H](NC(=O)[C@H](CCC(=O)O)NC(C)=O)[C@@H](C)O)C(=O)N[C@@H](C)C(=O)N[C@@H](Cc1c[nH]c2ccccc12)C(=O)NCC(=O)N1CCC[C@H]1C(=O)N[C@H](C(=O)NCC(=O)N[C@@H](CC(=O)O)C(=O)N[C@@H](CCC(=O)O)C(=O)N[C@@H](CC(N)=O)C(N)=O)[C@@H](C)O` (Ac-ETEFIAWGPTGDEN-NH2), the Ki under setting [4] is 43 ± 2 nM.
Take `CC[C@H](C)[C@H](NC(=O)[C@H](C)NC(C)=O)C(=O)N[C@H](C(=O)N[C@@H](Cc1c[nH]c2ccccc12)C(=O)NCC(=O)N1CCC[C@H]1C(=O)N[C@H](C(=O)N[C@H](C(=O)N[C@@H](CO)C(=O)N[C@@H](CCCNC(=N)N)C(=O)N[C@@H](CCC(=O)O)C(=O)N[C@@H](CC(=O)O)C(=O)NCC(=O)NCC(=O)N[C@@H](CC(=O)O)C(N)=O)C(C)C)[C@@H](C)O)C(C)C` (Ac-AIVWGPTVSREDGGD-NH2): the Ki (Table 3, SPOT hit validation and previously reported peptides, read-out: Ki (nM) mean ± SEM) was 637 ± 45 nM.
Regarding `CC[C@H](C)[C@H](NC(=O)[C@H](Cc1ccccc1)NC(=O)[C@H](CCC(=O)O)NC(=O)[C@@H](NC(=O)[C@H](CCC(=O)O)NC(C)=O)[C@@H](C)O)C(=O)N[C@@H](C)C(=O)N[C@@H](Cc1c[nH]c2ccccc12)C(=O)NCC(=O)N1CCC[C@H]1C(=O)N[C@@H](CO)C(=O)NCC(=O)N[C@@H](CC(=O)O)C(=O)N[C@@H](CCC(=O)O)C(=O)N[C@@H](CC(=O)O)C(N)=O` [ETEFIAWGPSGDED] (Ac-ETEFIAWGPSGDED-NH2), the Ki under setting [4] is 32 ± 1 nM.
With `CC(=O)N[C@@H](CCC(=O)O)C(=O)N[C@@H](CC(=O)O)C(=O)N[C@@H](CC(=O)O)C(=O)N[C@@H](CO)C(=O)N[C@@H](CC(=O)O)C(=O)N[C@H](C(=O)N[C@@H](Cc1c[nH]c2ccccc12)C(=O)N[C@@H](Cc1c[nH]c2ccccc12)C(=O)NCC(=O)NCC(=O)N[C@@H](CO)C(=O)N[C@@H](CC(=O)O)C(=O)N[C@H](C(=O)N[C@@H](CC(=O)O)C(N)=O)[C@@H](C)O)C(C)C` (Ac-EDDSDVWWGGSDTD-NH2), under setting [3], the Ki is 204 ± 4 nM.
For the molecule `CC[C@H](C)[C@H](NC(=O)[C@H](Cc1ccccc1)NC(=O)[C@H](CCC(=O)O)NC(=O)[C@@H](NC(=O)[C@H](CCC(=O)O)NC(C)=O)[C@@H](C)O)C(=O)N[C@@H](C)C(=O)N[C@@H](Cc1c[nH]c2ccccc12)C(=O)NCC(=O)N1CCC[C@H]1C(=O)N[C@H](C(=O)NCC(=O)N[C@@H](CC(=O)O)C(=O)N[C@@H](CCCNC(=N)N)C(=O)N[C@@H](CC(=O)O)C(N)=O)[C@@H](C)O` (Ac-ETEFIAWGPTGDRD-NH2), the Ki under setting [4] was 54 ± 2 nM.
With `CC(=O)N[C@@H](C)C(=O)N[C@@H](CCC(=O)O)C(=O)N[C@@H](CCC(=O)O)C(=O)N[C@@H](CC(=O)O)C(=O)N[C@@H](CC(=O)O)C(=O)N[C@@H](CO)C(=O)N[C@@H](CC(=O)O)C(=O)N[C@H](C(=O)N[C@@H](Cc1c[nH]c2ccccc12)C(=O)N[C@@H](Cc1c[nH]c2ccccc12)C(=O)NCC(=O)NCC(=O)N[C@@H](C)C(=O)N[C@@H](CC(=O)O)C(=O)N[C@H](C(=O)N[C@@H](CC(=O)O)C(=O)N[C@@H](Cc1ccc(O)cc1)C(=O)N[C@@H](C)C(=O)N[C@@H](CC(=O)O)C(N)=O)[C@@H](C)O)C(C)C`, the Ki (Table 4, truncation and elongation scans of APP epitope, read-out: Ki (nM) mean ± SEM) was 237 ± 8 nM.
For the molecule `CC[C@H](C)[C@H](NC(=O)[C@H](C)NC(=O)[C@H](Cc1c[nH]c2ccccc12)NC(=O)[C@H](C)NC(C)=O)C(=O)N[C@H](C(=O)N[C@@H](Cc1c[nH]c2ccccc12)C(=O)NCC(=O)N1CCC[C@H]1C(=O)N[C@H](C(=O)N[C@H](C(=O)N[C@@H](CO)C(=O)N[C@@H](CCCNC(=N)N)C(=O)N[C@@H](CCC(=O)O)C(=O)N[C@@H](CC(=O)O)C(N)=O)C(C)C)[C@@H](C)O)C(C)C` [AWAIVWGPTVSRED] (Ac-AWAIVWGPTVSRED-NH2), the Ki under setting [2] was 552 ± 20 nM.
Still for that read-out and setting: to `CC[C@H](C)[C@H](NC(=O)[C@H](C)NC(=O)[C@H](Cc1c[nH]c2ccccc12)NC(=O)[C@@H]1CCCN1C(C)=O)C(=O)N[C@H](C(=O)N[C@@H](Cc1c[nH]c2ccccc12)C(=O)NCC(=O)N1CCC[C@H]1C(=O)N[C@H](C(=O)N[C@H](C(=O)N[C@@H](CO)C(=O)N[C@@H](C)C(=O)N[C@@H](CCC(=O)O)C(=O)N[C@@H](CC(=O)O)C(N)=O)C(C)C)[C@@H](C)O)C(C)C` [PWAIVWGPTVSAED] (Ac-PWAIVWGPTVSAED-NH2) belongs 341 ± 7 nM.
